A short description of series [1]: Hygroscopicity (DVS, storage at RT/different RHs and at 40° C./75% RH). The series is classed as physicochemical. The protocol: Hygroscopicity (DVS, Storage at RT/Different RHs and at 40° C./75% RH)
Series [2] in a line: Crystallinity (X-rays / powder X-ray diffraction). The series is classed as physicochemical. The note with it: for Crystallinity (Powder X-Ray Diffraction): salts of Example 2C; for Crystallinity (X-Rays): salts of Example 2A; for degree of crystallinity (Powder X-Ray Diffraction): salts of Example 2B, fumarate.
Text: (§1) Crystallinity (Powder X-Ray Diffraction)
as §1

Series [3] in a line: Intrinsic dissolution rate. To be noted: for intrinsic dissolution rate (in words, order): salts of Example 2B. The series is classed as physicochemical. From the text:
Intrinsic Dissolution Rate (pH 1.2)
(§2) Solubility and Intrinsic Dissolution Rate

Series [4] in a line: Polymorphism screen (RT evaporation, cooling crystallization at −20° C.). The note with it: salts of Example 2A, cooling crystallization at −20° C. in different solvent or mixtures. The series is classed as physicochemical.
The conditions of series [5]: assessment, no test described, cited from earlier work.
Series [6] is described as follows: Chemical stability (2 weeks at 65° C.). The series is classed as physicochemical. To be noted: salts of Example 2A, also RT/90% RH. As for the experimental part: Chemical Stability (2 Weeks at 65° C.)
The nature of another series: Solubility.
Text: Solubility (Water, pH 1.2 and pH 7.4 Buffers)
as §2

A short description of series [7]: Chemical stability during storage. The note with it: long term storage; free base vs hydrochloride.
For series [8] the following is noted: controlled studies; cited from earlier work.
Setting [9] is: listed as L-malate, L-malate salt.
The mark [10] stands for this setting: salts of Example 2A, DVS, storage at RT/different RHs.
Setting [11] is: salts of Example 2C, purified water, preliminary studies.

Entries after “also recorded” stand apart in the source; their conditions may differ. Where two headings read alike, the source gives them in different places.

The melting point is the temperature, or range, at which the solid turns liquid. On to `CCOc1ncccc1OCCOc1nccnc1N1CCNC[C@H]1C.O=C(O)CCC(=O)O`, for which the melting point lay in the range of 116 to 132 °C.
Regarding `C[C@@H]1CNCCN1c1nccnc1OCCOc1cccnc1OCCN(C)C.O=C(O)C(O)C(O)C(=O)O` [D-tartrate, (2R)-1-[3-(2-{[2-(2-dimethylaminoethoxy)-3-pyridinyl]oxy}ethoxy)-2-pyrazinyl]-2-methylpiperazine, D-tartrate], the Hygroscopicity entry in [1] (salts of Example 2C) was “very hygroscopic and deliquescent”. Also, the “Crystallinity (Powder X-Ray Diffraction)” value in [2] is given as “low degree of crystallinity”.
Take `CCOc1ncccc1OCCOc1nccnc1N1CCNC[C@H]1C` [Example 2B, (2R)-1-(3-{2-[(2-ethoxy-3-pyridinyl)oxy]ethoxy}-2-pyrazinyl)-2-methylpiperazine]: in series [3], the “intrinsic dissolution rate (in words, order)” value is reported as “base<fumarate<succinate”.
For the compound `C[C@@H]1CNCCN1c1nccnc1OCCOc1cccnc1.O=C(O)C[C@H](O)C(=O)O` [Example 3A, (2R)-methyl-1-{3-[2-(3-pyridinyloxy)ethoxy]-2-pyrazinyl}piperazine, L-malate salt], the “behavior upon exposition to 40° C./75% RH” value in [1] (salts of Example 2A) is on record as “good behavior”. In addition, the Hygroscopicity result in series [1] (salts of Example 2A, DVS, storage at RT/different RHs, L-malate salt) is reported as “less hygroscopic”; in [1] (salts of Example 2A, DVS, storage at RT/different RHs, listed as L-malate, L-malate salt), “low hygroscopicity”. Further, the Polymorphism entry in series [4] is on record as “did not show other polymorphs”. Further, the entries for the “Crystallinity (X-Rays)” value in [2] (L-malate salt) and in series [2] (setting [9]) were “higher crystallinity” and “Positive results; also recorded: high crystallinity”, respectively. Besides, the Toxicological acceptability entry in series [5] (salts of Example 2A) is given as “low toxicity”. For the same compound, the Chemical stability entry in series [6] (L-malate salt) was “higher chemical stability”; in series [6] (setting [9]) it was “Positive data; also recorded: high chemical stability”.
The term solubility denotes how much of the substance goes into solution per volume. `C[C@@H]1CNCCN1c1nccnc1OCCOc1cccnc1OCCN(C)C.O=P(O)(O)O` [Example 3C, (2R)-1-[3-(2-{[2-(2-dimethylaminoethoxy)-3-pyridinyl]oxy}ethoxy)-2-pyrazinyl]-2-methylpiperazine, phosphoric acid salt]: the melting point lay within 140 to 168 °C. In addition, in series [1] (salts of Example 2C), the Hygroscopicity result is “low and low hygroscopicity”. The “Crystallinity (Powder X-Ray Diffraction)” value in series [2] is listed as “predominantely crystalline to moderately crystallinity; also recorded: high crystallinity”. Also, the “solubility (in words, comparison of salts)” value in “Solubility” (salts of Example 2C) is given as “high solubility”. In “Solubility” (water), the solubility is not below 590 mg/mL. Also, in series [5] (salts of Example 2C), the Toxicological acceptability entry was “low toxicity”.
Compound `C[C@@H]1CNCCN1c1nccnc1Cl.Cl` [Example 9, (2R)-1-(3-chloro-2-pyrazinyl)-2-methylpiperazine, hydrochloride] gave a melting point of 209 to 210.5 °C. In addition, in [7], the stability for storage result is recorded as “considerably more stable”.
For the compound `C[C@@H]1CNCCN1c1nccnc1OCCOc1cccnc1.O=C(O)c1ccccc1` [benzoate, (2R)-methyl-1-{3-[2-(3-pyridinyloxy)ethoxy]-2-pyrazinyl}piperazine, benzoate], the Hygroscopicity result in [1] (setting [10]) was “cake formation and darkening”. For the same compound, in series [4], the Polymorphism result is reported as “did not show other polymorphs”. Also, in [2], the “Crystallinity (X-Rays)” value is on record as “Positive results”. In addition, in series [6], the Chemical stability entry is given as “Positive data”.
As for `C[C@@H]1CNCCN1c1nccnc1OCCOc1cccnc1OCCN(C)C.O=C(O)CC(O)(CC(=O)O)C(=O)O` [citrate, (2R)-1-[3-(2-{[2-(2-dimethylaminoethoxy)-3-pyridinyl]oxy}ethoxy)-2-pyrazinyl]-2-methylpiperazine, citrate], in series [1] (salts of Example 2C), the Hygroscopicity result was “very hygroscopic and deliquescent”. In addition, the “Crystallinity (Powder X-Ray Diffraction)” value in [2] is listed as “practically amorphous”.
For `CCN[C@@H](C)Cc1cccc(C(F)(F)F)c1` [dexfenfluramine], the weight reduction result in series [8] is listed as “weight reduction”.
Turning to `C[C@@H]1CNCCN1c1nccnc1OCCOc1cccnc1OCCN(C)C.O=C(O)CN(CCN(CC(=O)O)CC(=O)O)CC(=O)O` [edeteate, (2R)-1-[3-(2-{[2-(2-dimethylaminoethoxy)-3-pyridinyl]oxy}ethoxy)-2-pyrazinyl]-2-methylpiperazine, edeteate], the Hygroscopicity entry in [1] (salts of Example 2C) is “very hygroscopic and deliquescent”. Further, the “Crystallinity (Powder X-Ray Diffraction)” value in series [2] is given as “practically amorphous”.
In the case of `CNCCC(Oc1ccc(C(F)(F)F)cc1)c1ccccc1` (stereo not drawn) [fluoxetine], the weight reduction result in series [8] was “weight reduction”.
Turning to `CCOc1ncccc1OCCOc1nccnc1N1CCNC[C@H]1C.O=C(O)/C=C/C(=O)O` [fumarate, (2R)-1-(3-{2-[(2-ethoxy-3-pyridinyl)oxy]ethoxy}-2-pyrazinyl)-2-methylpiperazine, fumarate, reference compound], the “intrinsic dissolution rate (in words, order)” value in [3] (fumarate) is listed as “base<fumarate<succinate”; in series [3] (listed as fumarate salt, fumarate), “inferior to that of the succinate salt”. The “degree of crystallinity (Powder X-Ray Diffraction)” value in series [2] is on record as “succinate>acetate>fumarate”; in series [2] (listed as fumarate salt) it was “inferior to that of the succinate salt”. In addition, the solubility in “Solubility” (0.9% w/w NaCl, saline or isotonic) was more than 93 mg/mL; in the series “Solubility” (phosphate buffer, pH 7.4, aqueous buffer), more than 68 mg/mL. Besides, the “solubility (in words, comparison of salts)” value in the series “Solubility” (salts of Example 2B) is recorded as “inferior to that of the succinate salt”.
Consider `C[C@@H]1CNCCN1c1nccnc1OCCOc1cccnc1OCCN(C)C.O=C(O)[C@@H](O)[C@H](O)[C@H](O)[C@@H](O)C(=O)O` [galactareate, (2R)-1-[3-(2-{[2-(2-dimethylaminoethoxy)-3-pyridinyl]oxy}ethoxy)-2-pyrazinyl]-2-methylpiperazine, galactareate (mucic acid salt)], for which the “Crystallinity (Powder X-Ray Diffraction)” value in series [2] is recorded as “partially amorphous”.
With `C[C@@H]1CNCCN1c1nccnc1OCCOc1cccnc1.Cl` [hydrochloride, (2R)-methyl-1-{3-[2-(3-pyridinyloxy)ethoxy]-2-pyrazinyl}piperazine, hydrochloride, reference compound], the Hygroscopicity entry in [1] (setting [10]) is listed as “deliquescent”. The “Crystallinity (X-Rays)” value in series [2] is “lower crystallinity”.
For the compound `C[C@@H]1CNCCN1c1nccnc1OCCOc1cccnc1OCCN(C)C.O=C(O)C(=O)O` [oxalate, (2R)-1-[3-(2-{[2-(2-dimethylaminoethoxy)-3-pyridinyl]oxy}ethoxy)-2-pyrazinyl]-2-methylpiperazine, oxalate], the Hygroscopicity entry in [1] (salts of Example 2C) is “low”. Also, the “Crystallinity (Powder X-Ray Diffraction)” value in series [2] is on record as “high degree of crystallinity”. Further, in series [5] (salts of Example 2C), the Toxicological acceptability entry was “inappropriate due to toxicological reasons”.
Consider `C[C@@H]1CNCCN1c1nccnc1OCCOc1cccnc1OCCN(C)C.O=C(O)CCC(=O)O` [succinate, (2R)-1-[3-(2-{[2-(2-dimethylaminoethoxy)-3-pyridinyl]oxy}ethoxy)-2-pyrazinyl]-2-methylpiperazine, succinate], for which the “intrinsic dissolution rate (in words, order)” value in [3] is reported as “base<fumarate<succinate”. The Hygroscopicity result in series [1] (salts of Example 2C) is “very hygroscopic and deliquescent”. In addition, in “Solubility” (salts of Example 2B), the “solubility (in words, comparison of salts)” value is “higher than the fumarate salt”.
For the compound “(2R)-1-(3-{2-[(2-ethoxy-3-pyridinyl)oxy]ethoxy}-2-pyrazinyl)-2-methylpiperazine, fumarate [reference compound]”, the Hygroscopicity entry in [1] (setting [10]) is “hydrate conversion”. Further, the “Crystallinity (X-Rays)” value in [2] is on record as “lower crystallinity”. The Chemical stability entry in [6] is reported as “less stable”.
Consider “(2R)-1-[3-(2-{[2-(2-dimethylaminoethoxy)-3-pyridinyl]oxy}ethoxy)-2-pyrazinyl]-2-methylpiperazine, 1,3,5-benzenetricarboxylate”, for which the Hygroscopicity entry in series [1] (salts of Example 2C) was “low”. Besides, the “Crystallinity (Powder X-Ray Diffraction)” value in series [2] is “predominantly crystalline”. Further, in the series “Solubility” (salts of Example 2C), the “solubility (in words, comparison of salts)” value is “lower than for the phosphoric acid salt”. The solubility in the series “Solubility” (salts of Example 2C, SGF (simulated gastric fluid without enzymes; pH of filtrate 2.9), preliminary studies) is more than 19 mg/mL; in the series “Solubility” (salts of Example 2C, SIF (simulated intestinal fluid without enzymes; pH of filtrate 4.2), preliminary studies), 11 mg/mL; in the series “Solubility” (setting [11]), “≈ 4 mg/ml”.
In the case of “(2R)-1-[3-(2-{[2-(2-dimethylaminoethoxy)-3-pyridinyl]oxy}ethoxy)-2-pyrazinyl]-2-methylpiperazine, 1,5-naphthalenedisulfonate”, the Hygroscopicity result in series [1] (salts of Example 2C) is “moderate”. The “Crystallinity (Powder X-Ray Diffraction)” value in series [2] is “predominantly crystalline”. In addition, the solubility in “Solubility” (salts of Example 2C, medium not stated) was more than 540 mg/mL.
Turning to “(2R)-1-[3-(2-{[2-(2-dimethylaminoethoxy)-3-pyridinyl]oxy}ethoxy)-2-pyrazinyl]-2-methylpiperazine, terephthalate”, in series [1] (salts of Example 2C), the Hygroscopicity result was “hight (deliquescent)”. Besides, the “Crystallinity (Powder X-Ray Diffraction)” value in [2] is given as “predominantly crystalline”. Besides, the solubility in the series “Solubility” (setting [11]) was less than 1 mg/mL.
Turning to “(2R)-methyl-1-{3-[2-(3-pyridinyloxy)ethoxy]-2-pyrazinyl}piperazine, cinnamate”, in [3] (salts of Example 2A, pH 1.2), the “Intrinsic dissolution rate (IDR)” value was 10^−3 mgsec^−1 cm^−2. Moreover, in series [1] (salts of Example 2A), the “behavior upon exposition to 40° C./75% RH” value is on record as “good behavior”. Further, the “Crystallinity (X-Rays)” value in series [2] is recorded as “Positive results”. Besides, the Chemical stability result in series [6] was “Positive data”.
